The text below walks through data of US9308183B2, “Therapy for hyperexcitability disorders” (UCB PHARMA GMBH, priority 2006, dated 2016).

Where two headings read alike, the source gives them in different places.

In assay [1] the test system is Sodium channels in mouse neuroblastoma N1E-115 cells. The experiment in a line: Sodium current fast and slow inactivation in neuroblastoma cells (holding potential/prepulse protocols). Type of assay: cell-based. Conditions: for current when the holding potential was −60 mV: 10 ms test pulse to 0 mV; for fraction available after 500 ms hyperpolarizing pulse to −100 mV, compared to control values: holding potential −60 mV; for % of channels in the slow inactivated state: held at −80 mV, 10 s to −10 mV, 1.5 s recovery, VEH 27%.

The test system of assay [2] is rat hippocampal slice cultures. Type of assay: cell-based.
Assay [3] deals with rat hippocampal slice cultures. Format: cell-based. Conditions: for reduction of overall damage: LDH release 24 h after Glut. Background: LDH leaks from cells whose membrane has failed.
Another assay has as its system 129SVEV mice. The experiment in a line: Stress-induced hyperthermia (SIH) test, animal model for stress-induced anxiety. Format: in vivo, mouse. As to the method:
The room temperature was maintained between 20 and 23° C. with a relative humidity maintained between 30% and 70%.
On the day prior to testing, the mice were brought to the experimental room one hour before scheduled lights out and singly housed overnight with food and water ad libitum. […] The probe remained inside the animal for approximately 5 seconds or until body temperature reached stability. This temperature was recorded as the baseline rectal temperature (T1). […] Before each insertion, the rectal probe was cleaned with an alcohol pad and lubricated with sterile K-Y jelly.

Assay [4] addresses T1, rat type II sodium channel alpha subunit (Nav1.2) (Rattus norvegicus, UniProt P04775).
T1 construct: expressed in transfected cells; host or cells: Xenopus oocytes
The experiment in a line: Sodium currents in Xenopus oocytes expressing sodium channel alpha subunits. Type of assay: cell-based.

Assay [5] relates to TTX-resistant sodium currents in rat dorsal root ganglia. The experiment in a line: Slow inactivation of TTX-resistant sodium current in dorsal root ganglia. Format: cell-based. Particulars: 100 μM.
The subject of another assay is sodium channels. Type of assay: cell-based. Conditions: 100 μM.
The subject of assay [6] is sodium channels in rat cortical neurons, NIE-115 cells and Xenopus oocytes. The experiment in a line: Effects upon firing, synaptic transmission and sodium channels in rat cortical neurons, NIE-115 cells and Xenopus oocytes. Format: cell-based.
Assay [7] relates to voltage-gated Na+ channels. Conditions: cited from earlier work.
Setting [8] is: 10 μM, 15 mM glutamate for 24 h.

T1 sequence (P04775 whole entry): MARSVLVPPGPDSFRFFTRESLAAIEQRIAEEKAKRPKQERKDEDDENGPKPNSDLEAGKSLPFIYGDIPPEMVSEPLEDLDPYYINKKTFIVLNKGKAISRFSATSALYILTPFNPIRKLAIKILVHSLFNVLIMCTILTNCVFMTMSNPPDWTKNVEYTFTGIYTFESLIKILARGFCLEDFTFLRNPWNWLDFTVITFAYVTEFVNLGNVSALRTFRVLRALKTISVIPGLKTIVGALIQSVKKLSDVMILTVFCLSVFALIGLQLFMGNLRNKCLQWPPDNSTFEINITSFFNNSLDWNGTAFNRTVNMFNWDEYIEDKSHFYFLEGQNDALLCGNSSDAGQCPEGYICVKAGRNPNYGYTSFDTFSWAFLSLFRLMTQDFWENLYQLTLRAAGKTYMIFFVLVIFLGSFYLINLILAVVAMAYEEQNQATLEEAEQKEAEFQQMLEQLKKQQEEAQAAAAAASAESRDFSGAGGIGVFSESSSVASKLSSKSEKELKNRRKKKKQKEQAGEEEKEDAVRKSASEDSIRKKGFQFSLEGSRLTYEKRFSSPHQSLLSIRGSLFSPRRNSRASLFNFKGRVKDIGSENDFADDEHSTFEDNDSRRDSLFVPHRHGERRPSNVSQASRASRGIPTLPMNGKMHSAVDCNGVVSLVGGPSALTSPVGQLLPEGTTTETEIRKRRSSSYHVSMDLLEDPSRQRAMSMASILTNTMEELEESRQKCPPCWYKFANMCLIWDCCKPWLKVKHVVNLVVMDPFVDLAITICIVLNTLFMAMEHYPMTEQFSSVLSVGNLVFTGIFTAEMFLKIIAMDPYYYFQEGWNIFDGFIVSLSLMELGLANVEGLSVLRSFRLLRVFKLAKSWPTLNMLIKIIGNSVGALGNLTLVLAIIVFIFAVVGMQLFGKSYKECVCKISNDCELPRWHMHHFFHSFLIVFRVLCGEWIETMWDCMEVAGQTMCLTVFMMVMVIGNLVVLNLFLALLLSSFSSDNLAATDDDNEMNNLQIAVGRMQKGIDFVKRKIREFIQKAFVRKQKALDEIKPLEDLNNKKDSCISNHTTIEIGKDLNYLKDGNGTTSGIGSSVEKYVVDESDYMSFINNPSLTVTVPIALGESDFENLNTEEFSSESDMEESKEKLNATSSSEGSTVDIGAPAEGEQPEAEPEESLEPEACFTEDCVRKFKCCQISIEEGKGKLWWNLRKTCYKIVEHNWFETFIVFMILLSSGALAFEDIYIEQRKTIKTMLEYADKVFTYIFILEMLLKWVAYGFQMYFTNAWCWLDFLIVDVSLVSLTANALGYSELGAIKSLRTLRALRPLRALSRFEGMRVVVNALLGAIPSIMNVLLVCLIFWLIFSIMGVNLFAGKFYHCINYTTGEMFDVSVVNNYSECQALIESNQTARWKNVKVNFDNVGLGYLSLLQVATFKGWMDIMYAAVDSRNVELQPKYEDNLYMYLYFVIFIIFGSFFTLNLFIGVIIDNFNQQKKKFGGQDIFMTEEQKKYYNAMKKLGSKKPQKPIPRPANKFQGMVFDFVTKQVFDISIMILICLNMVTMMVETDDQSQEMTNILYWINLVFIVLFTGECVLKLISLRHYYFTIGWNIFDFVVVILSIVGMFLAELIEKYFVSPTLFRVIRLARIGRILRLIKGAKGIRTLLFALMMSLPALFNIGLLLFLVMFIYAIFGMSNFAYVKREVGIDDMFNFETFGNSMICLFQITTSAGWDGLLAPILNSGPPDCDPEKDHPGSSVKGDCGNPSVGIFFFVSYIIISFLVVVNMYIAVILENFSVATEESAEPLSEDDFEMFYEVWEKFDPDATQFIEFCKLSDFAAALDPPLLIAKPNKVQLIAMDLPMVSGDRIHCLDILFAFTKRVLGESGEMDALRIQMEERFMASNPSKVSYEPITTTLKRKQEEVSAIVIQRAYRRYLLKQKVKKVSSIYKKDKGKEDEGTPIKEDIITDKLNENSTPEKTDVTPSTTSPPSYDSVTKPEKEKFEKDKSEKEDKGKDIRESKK

As to `Nc1nnc(-c2cccc(Cl)c2Cl)c(N)n1` [lamotrigine, reference compound], in assay [1] (100 μM), the “current when the holding potential was −60 mV” value is given as “reduction in current” and the “fraction available after 500 ms hyperpolarizing pulse to −100 mV, compared to control values” (from here on “fraction available … compared to control values”) was found to be 0.88±0.06.

`C[C@]12N[C@H](Cc3ccccc31)c1ccccc12` [MK-801]: the “neuronal damage (PI uptake, CA1-CA3) 24 h after Glut” value in assay [2] (setting [8]) is “significant protection”. The “reduction of neuronal damage” value in assay [2] (10 μM, PI uptake 24 h after Glut) is ~80%. The “overall damage (LDH release) 24 h after Glut” value in assay [3] (setting [8]) is “significant protection”. Further, in [3] (10 μM), the “reduction of overall damage” value is ~50%.

In the case of `CC(C)C[C@H](CN)CC(=O)O` [pregabalin, reference compound], the “effect on SIH compared to saline” value with 129SVEV mice (mouse, in vivo, ip) was “No significant effects”.

For `NC(=O)N1c2ccccc2C=Cc2ccccc21` [carbamazepine, reference compound], in [1] (100 μM), the “current when the holding potential was −60 mV” value is “reduction in current” and the “fraction available … compared to control values” is 0.94±0.19.

Regarding `COC[C@@H](NC(C)=O)C(=O)NCc1ccccc1` [lacosamide, (R)-2-acetamido-N-benzyl-3-methoxy-propionamide], the “V50 for slow inactivation” value in [1] (32 μM and 100 μM) is “shift of the V50 for slow inactivation to more negative potentials”. Also, the “% of channels in the slow inactivated state” value (from here on “% of channels”) in assay [1] (32 μM) is 37%. For the same molecule, in [1] (100 μM), the “conditioning potential of first significant change in channel availability” value is −80 mV, the “reduction of sodium channel availability that resulted from entry into the slow inactivated state” value was “more than doubled”, the “current when the holding potential was −60 mV” value is “reduction in current” and the “% of channels” value is listed as 50%. For the same molecule, the “inhibition after hyperpolarizing prepulse (removal of fast inactivation)” value in assay [1] (100 μM, 500 ms pulse to −100 mV) was “not altered”. Further, the “% of channels” value in assay [1] (320 μM) was 62%. In addition, the “slow inactivation voltage curves” value in [1] (concentration dependent) is recorded as “shifted the slow inactivation voltage curves to more hyperpolarized membrane potentials”. In addition, in assay [1] (conditioning potential −10 mV, CONTROL 0.70±0.02), the “maximal fraction of current made unavailable by depolarisation” value is reported as 0.41±0.04. In [1] (in the presence of the drug, physiological 12.0 s), the “time constant for entry into slow inactivation” value is on record as 4.8 s. Besides, in assay [4] (100 μM, Xenopus oocytes, Nav1.2), the “slow inactivation voltage curve” value is listed as “pronounced shift”. For the same molecule, the “inhibition of sodium currents” value in assay [4] (oocyte expression system) is “rapid and profoundly voltage dependent inhibition”. For the same molecule, the “slow inactivation of TTX-resistant sodium currents” value in assay [5] is given as “markedly increased”. In addition, the “fraction of sodium channels slowly inactivated by a 10 s depolarizing pulse” value with sodium channels was “significantly increased”. Further, in the assay on sodium channels (after 10 s depolarizing pulse), the “half-life for channel recovery” value is “not significantly changed”. Besides, in assay [6], the “frequency of miniature excitatory post-synaptic potentials” value is given as “not reduced”, the “prolonged sustained repetitive firing on action potentials” value was “inhibits”, the “rate of sodium channel fast inactivation” value was “does not change” and the resting conductances result is recorded as “no effect”. Also, in assay [6], the “slow prolonged bursting in cortical neurons” value is listed as “inhibits”, the “steady state fast inactivation voltage curves” value is “does not shift”, the sustained repetitive firing result is reported as “did not block” and the “synaptic transmission under normal physiologic conditions” value is recorded as “did not modulate”. The “action potential firing evoked by brief depolarising steps or ramps” value in assay [6] (initial studies) is “very limited effect”. In addition, in assay [6] (stereoselective and concentration dependent), the “rate of synaptic traffic in cultured neurons” value is “attenuates”. For the same molecule, the “effect on SIH compared to saline” value in the assay on 129SVEV mice (3 mg/kg i.p. 60 min prior to testing) was “significantly attenuated”. For the same molecule, in the assay with 129SVEV mice (10 mg/kg i.p. 60 min prior to testing), the “effect on SIH compared to saline” value was “significantly attenuated”. In the assay with 129SVEV mice (30 mg/kg i.p. 60 min prior to testing), the “effect on SIH compared to saline” value is “No significant effects”. In addition, the “reduction of Glut-induced necrosis (neuronal damage)” value in assay [2] was 40-50%. Moreover, the “reduction of overall damage” value in assay [3] (1, 10 and 100 μM) is given as 30-40%. In addition, the “fast inactivation gating of voltage-gated Na+ channels” value in [7] is “does not exert its effects on neuronal excitability by affecting fast inactivation gating”.

For `O=C1NC(=O)C(c2ccccc2)(c2ccccc2)N1` [phenytoin, reference compound], in assay [1] (100 μM), the “current when the holding potential was −60 mV” value is on record as “reduction in current” and the “fraction available … compared to control values” was 0.99±0.05.

Turning to `NC1=N[C@H](O)[C@H]2[C@H]3O[C@]4(O)O[C@@H]([C@@H](O)[C@@]2(N1)[C@@H]4O)[C@]3(O)CO` [Tetrodotoxin], in [2], the “neuronal damage (PI uptake, CA1-CA3) 24 h after Glut” value is recorded as “neuroprotective effect” and the “reduction of neuronal damage” value is ~50%. Further, in [3], the “overall damage (LDH release) 24 h after Glut” value was “protective effect” and the “reduction of general damage” value was 20-40%.
